Measurements reported in article PMC10455244, “Alpha-Mangostin: A Potent Inhibitor of TRPV3 and Pro-Inflammatory Cytokine Secretion in Keratinocytes” (International Journal of Molecular Sciences, 2023).

Tests used:
[1] = biological target: T1, TRPV3 (Homo sapiens, UniProt Q8NET8); assay: Whole-cell patch-clamp, carvacrol-evoked TRPV3 current in TRPV3-overexpressing HEK 293T cells; assay type: cell-based; design: host or cells: NHEK; conditions: 1000 µM carvacrol, −100 mV, at higher concentrations
T1 sequence (Q8NET8 1-790): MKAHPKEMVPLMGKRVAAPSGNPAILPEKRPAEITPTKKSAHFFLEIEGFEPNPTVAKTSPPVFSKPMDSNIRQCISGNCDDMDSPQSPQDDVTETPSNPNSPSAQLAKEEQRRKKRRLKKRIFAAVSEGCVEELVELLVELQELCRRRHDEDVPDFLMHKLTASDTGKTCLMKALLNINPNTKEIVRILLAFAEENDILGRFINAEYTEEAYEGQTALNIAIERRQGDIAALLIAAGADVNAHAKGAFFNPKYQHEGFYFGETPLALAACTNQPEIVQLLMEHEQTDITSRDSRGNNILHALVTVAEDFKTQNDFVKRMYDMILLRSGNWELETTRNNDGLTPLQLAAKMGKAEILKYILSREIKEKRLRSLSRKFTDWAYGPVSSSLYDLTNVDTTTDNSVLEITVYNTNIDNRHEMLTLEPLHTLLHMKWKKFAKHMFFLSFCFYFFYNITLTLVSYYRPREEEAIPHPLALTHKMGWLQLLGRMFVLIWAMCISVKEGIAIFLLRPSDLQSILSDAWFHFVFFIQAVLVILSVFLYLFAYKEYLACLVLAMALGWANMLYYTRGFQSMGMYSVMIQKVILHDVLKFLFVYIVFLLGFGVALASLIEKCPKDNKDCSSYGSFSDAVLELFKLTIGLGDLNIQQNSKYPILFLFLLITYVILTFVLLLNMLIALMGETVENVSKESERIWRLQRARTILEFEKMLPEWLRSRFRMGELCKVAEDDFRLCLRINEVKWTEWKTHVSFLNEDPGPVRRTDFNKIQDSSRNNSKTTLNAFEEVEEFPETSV

[2] = system: TNF-α; assay: ELISA, TNF-α release in NHEK; assay type: cell-based, human; conditions: 1 µM with 300 µM carvacrol, 24 h
Description: Constitutive activation of TRPV3 due to continuous stimulation or the presence of Olmsted mutations causes noticeable skin inflammation due to the increased secretion of pro-inflammatory cytokines from the keratinocytes. Besides, in atopic dermatitis (AD), cytokine release from keratinocytes contributes to the inflammatory environment, which drives many characteristic AD symptoms. Therefore, we determined the effect of TRPV3 activation on cytokine release instead of TRPV3 expression and evaluated whether alpha-mangostin suppressed TRPV3-mediated cytokine secretion in normal human keratinocytes. The levels of secreted cytokines (interleukin (IL)-6, IL-8, and tumor necrosis factor-alpha (TNF-α)) were measured using enzyme-linked Immunosorbent assay (ELISA) kits due to their high sensitivity and quantitation ability. The cells were induced with 300 µM carvacrol, with or without 1 µM alpha-mangostin, and 10 µM 74a.
Figure 5 Alpha-mangostin (α-MG) inhibited carvacrol-induced cytokine release in NHEK cells and rescued carvacrol-induced cell death. (A) Alpha-mangostin inhibited the carvacrol-induced release of IL-8 and IL-6 in NHEK. Cells were induced by 300 µM carvacrol with or without either 1 µM alpha-mangostin or 10 µM 74a for 24 h before the ELISA assay. (B) Alpha-mangostin reduced cell death caused by carvacrol in human keratinocytes. […]

Q: For `COc1c(O)cc2oc3cc(O)c(CC=C(C)C)c(O)c3c(=O)c2c1CC=C(C)C` [Alpha-mangostin], which “Effect on TRPV3 current induced by carvacrol” value [1] is on record?
A: suppressed

Q: And the “Effect on TNF-α levels” value [2]?
A: no changes
